Counter-ions that a name gives are not always drawn.

Regarding `COc1cc2[nH]c(N(C)Cc3ccc(N4CCCC4=O)cc3)nc(=O)c2c(OC)c1OC` [Example 12, 5,6,7-Trimethoxy-2-{methyl-[4-(2-oxo-pyrrolidin-1-yl)-benzyl]-amino}-1H-quinazolin-4-one], the melting point was 195.9 to 197.4 °C. As for `COc1cc2[nH]c(N(C)Cc3ccc4c(c3)CN(C)C4)nc(=O)c2c(C)c1OC` [Example 38, 6,7-Dimethoxy-5-methyl-2-[methyl-(2-methyl-2,3-dihydro-1H-isoindol-5-ylmethyl)-amino]-1H-quinazolin-4-one], the melting point fell in the range of 214.9 to 224.8 °C. The figure for `COc1cc2[nH]c(N(C)Cc3cccc(Nc4nc(Cl)ncc4C)c3)nc(=O)c2c(OC)c1OC` [Example 217, 2-{[3-(2-Chloro-5-methyl-pyrimidin-4-ylamino)-benzyl]-methyl-amino}-5,6,7-trimethoxy-1H-quinazolin-4-one] is 225.9 to 227 °C; for `COc1cc2[nH]c(N(C)Cc3cccc(O)c3)nc(=O)c2c(C)c1OC` [Example 154, 2-[(3-Hydroxy-benzyl)-methyl-amino]-6,7-dimethoxy-5-methyl-1H-quinazolin-4-one] it is 252.9 to 254.35 °C; for `COc1cc2nc(N(C)Cc3cccc(C4CCN(C)CC4)c3)[nH]c(=O)c2c(C)c1OC` [Example H-3, 6,7-Dimethoxy-5-methyl-2-{methyl-[3-(1-methyl-piperidin-4-yl)-benzyl]-amino}-1H-quinazolin-4-one] it is 155.7 to 158 °C. In the case of `COc1cc2[nH]c(N(C)Cc3cccc(N4C[C@@H](O)CC4=O)c3)nc(=O)c2c(OC)c1OC` [Example 24, 2-{[3-((S)-4-Hydroxy-2-oxo-pyrrolidin-1-yl)-benzyl]-methyl-amino}-5,6,7-trimethoxy-1H-quinazolin-4-one] it was 207.5 to 209.9 °C; in that of `COc1cc2[nH]c(N(C)Cc3ccc4c(c3)CN(C)C4)nc(=O)c2c(OC)c1OC` [Example 45, 5,6,7-Trimethoxy-2-[methyl-(2-methyl-2,3-dihydro-1H-isoindol-5-ylmethyl)-amino]-1H-quinazolin-4-one], 165.5 to 166.5 °C. In the case of `COc1cc2[nH]c(N(C)Cc3cccc(/N=C/N(C)C)c3)nc(=O)c2c(C)c1OC` [Example 196] it was 185 to 186 °C; in that of `COc1ccc(CN(C)c2nc(=O)c3c(C)c(OC)c(OC)cc3[nH]2)cc1OCC(CO)CO` [Example 6, 2-{[3-(3-Hydroxy-2-hydroxymethyl-propoxy)-4-methoxy-benzyl]-methyl-amino}-6,7-dimethoxy-5-methyl-1H-quinazolin-4-one], 210.8 to 215.4 °C; in that of `COc1cc2[nH]c(N(C)Cc3cccc(C(=O)O)c3)nc(=O)c2c(C)c1OC` [Example 134, 3-{[(6,7-Dimethoxy-5-methyl-4-oxo-1,4-dihydro-quinazolin-2-yl)-methyl-amino]-methyl}-benzoic acid], 283.1 to 286.2 °C.

Regarding `COc1ccc(CN(C)c2nc(=O)c3c(C)c(OC)c(OC)cc3[nH]2)cc1OCCN(C)CCO` [Example 16, 2-[(3-{2-[(2-Hydroxy-ethyl)-methyl-amino]-ethoxy}-4-methoxy-benzyl)-methyl-amino]-6,7-dimethoxy-5-methyl-1H-quinazolin-4-one], the melting point lay within 144.8 to 146.2 °C. Take `COc1cc2[nH]c(N(C)Cc3cccc(CC#N)c3)nc(=O)c2c(OC)c1OC` [Example 107, (3-{[Methyl-(5,6,7-trimethoxy-4-oxo-1,4-dihydro-quinazloin-2-yl)-amino]-methyl}-phenyl)-acetonitrile]: the melting point fell in the range of 149.5 to 153.3 °C.

Compound `COc1cc2[nH]c(N(C)Cc3cccc(-n4cccn4)c3)nc(=O)c2c(C)c1OC` [Example 232, 6,7-Dimethoxy-5-methyl-2-[methyl-(3-pyrazol-1-yl-benzyl)-amino]-1H-quinazolin-4-one] came in with a melting point of 220.8 to 224.1 °C. Turning to `COc1cc2[nH]c(N(C)Cc3cccc(CN4CCC(O)CC4)c3)nc(=O)c2c(C)c1OC` [Example 40, 2-{[3-(4-Hydroxy-piperidin-1-ylmethyl)-benzyl]-methyl-amino}-6,7-dimethoxy-5-methyl-1H-quinazolin-4-one], the melting point lay in the range of 159.2 to 159.6 °C. For the compound `COc1cc2[nH]c(N(C)Cc3cccc(N(C)CCCO)c3)nc(=O)c2c(OC)c1OC` (as salt: HCl) [Example 187], the melting point was in the range of 156 to 157.2 °C. In the case of `COc1cc2[nH]c(N(C)Cc3cccc(/N=C(\C(C)C)N(C)C)c3)nc(=O)c2c(OC)c1OC` [Example 198, N,N-Dimethyl-N′-(3-{[methyl-(5,6,7-trimethoxy-4-oxo-1,4-dihydro-quinazolin-2-yl)-amino]-methyl}-phenyl)-isobutyramidine] it was 148 to 150 °C.

`COc1cc2[nH]c(N(C)Cc3cccc(NCCO)c3)nc(=O)c2c(OC)c1OC` [Example 182, 2-{[3-(2-Hydroxy-ethylamino)-benzyl]-methyl-amino}-5,6,7-trimethoxy-1H-quinazolin-4-one] registered a melting point of 60.5 to 61.5 °C. In the case of `COc1cc2[nH]c(N(C)Cc3cccc(N4CCC(C)C4=O)c3)nc(=O)c2c(OC)c1OC` (stereo not drawn) [Example 75, 5,6,7-Trimethoxy-2-{methyl-[3-(3-methyl-2-oxo-pyrrolidin-1-yl)-benzyl]-amino}-1H-quinazolin-4-one] it was 156.4 to 162 °C; in that of `COc1cc2[nH]c(N(C)Cc3cccc(CN4CCC(OC)C4)c3)nc(=O)c2c(C)c1OC` (stereo not drawn) [Example 37, 6,7-Dimetrhoxy-2-{[3-(3-methoxy-pyrrolidin-1-ylmethyl)-benzyl]-methyl-amino}-5-methyl-1H-quinazolin-4-one], 151.2 to 152.9 °C. The figure for `COc1cc2[nH]c(N(C)Cc3cccc(OCC(=O)O)c3)nc(=O)c2c(OC)c1OC` [Example 158, (3-{[Methyl-(5,6,7-trimethoxy-4-oxo-1,4-dihydro-quinazolin-2-yl)-amino]-methyl}-phenoxy)-acetic acid] is over 300 °C. The compound `COc1cc2[nH]c(N(C)Cc3cccc(N=C(C(C)C)N(C)C)c3)nc(=O)c2c(OC)c1OC` [Example G-32, N,N-Dimethyl-N′-(3-{[methyl-(5,6,7-trimethoxy-4-oxo-1,4-dihydro-quinazolin-2-yl)-amino]-methyl}-phenyl)-isobutyramidine] returned a melting point of 148 to 150 °C. The figure for `CCN1CCN(c2cccc(CN(C)c3nc(=O)c4c(C)c(OC)c(OC)cc4[nH]3)c2)C1=O` [Example 264, 2-{[3-(3-Ethyl-2-oxo-imidazolidin-1-yl)-benzyl]-methyl-amino}-6,7-dimethoxy-5-methyl-1H-quinaozlin-4-one] is 201.4 to 207.4 °C; for `COc1cc2[nH]c(N(C)Cc3cccc(N4CCCS4(=O)=O)c3)nc(=O)c2c(OC)c1OC` [Example 253, {[3-(1,1-Dioxo-1λ6-isothiazolidin-2-yl)-benzyl]-methyl-amino}-5,6,7-trimethoxy-1H-quinazolin-4-one] it is 181.1 to 183.5 °C.

Consider `COCCN1Cc2ccc(CN(C)c3nc(=O)c4c(C)c(OC)c(OC)cc4[nH]3)cc2C1` [Example 19, 6,7-Dimethoxy-2-{[2-(2-methoxy-ethyl)-2,3-dihydro-1H-isoindol-5-ylmethyl]-methyl-amino}-5-methyl-1H-quinazolin-4-one], for which the melting point is 173.3 to 177.9 °C.

As usually defined, the melting point is the temperature of the solid-liquid transition.

(Values after US7244738B2, “Arylamine-substituted quinazolinone compounds useful as alpha 1A/B adrenergic receptor antagonists” (Roche Palo Alto LLC, priority 2003, dated 2007).)
